What was measured:
[1] = molecular target: T1, PcGA2ox1 (Phaseolus coccineus, UniProt Q9XG83); experiment: Incubation of recombinant GA 2-oxidase PcGA2ox1 (E. coli lysate) with 14C-labelled GA substrates; format: biochemical; conditions: for conversion of C20-GA substrate: 14C-labelled substrate, dioxygenase cofactors; for 2β-Hydroxy GA product / GA-catabolite Product: E. coli cell lysate, 14C-labelled GA substrate and cofactors, 2.5 h, HPLC-radiomonitoring
T1 construct: unnamed vector-encoded fusion partner (phagemid expression); made in house; host or cells: E. coli (crude cell lysate)
T1 sequence (Q9XG83 1-331): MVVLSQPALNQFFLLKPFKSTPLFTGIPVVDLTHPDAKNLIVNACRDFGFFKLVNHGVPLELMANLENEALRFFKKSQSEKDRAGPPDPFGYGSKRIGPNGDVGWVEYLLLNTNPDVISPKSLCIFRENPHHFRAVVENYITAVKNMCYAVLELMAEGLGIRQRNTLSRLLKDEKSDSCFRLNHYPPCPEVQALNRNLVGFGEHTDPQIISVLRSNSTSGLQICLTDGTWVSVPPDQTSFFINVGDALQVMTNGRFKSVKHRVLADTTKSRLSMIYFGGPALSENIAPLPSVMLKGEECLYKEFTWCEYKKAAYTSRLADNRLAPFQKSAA
Procedure: (§1) GA 2β-hydroxylase activity was determined by measuring the release of 3H2O from a 2β tritiated GA substrate, as described by Smith and MacMillan (Smith, V. A., and MacMillan, J. in J. Plant Growth Regulation 2 251-264 (1984)). The bacterial lysate (90 μl) was incubated with [1,2-^3H2]GA4 or [2,3-^3H2]GA9 (ca. 50000 dpm), in the presence of 4 mM 2-oxoglutarate, 0.5 mM Fe(II)SO4, 4 MM ascorbate, 4 mM DTT, 1 mg/ml catalase, 2 mg/ml BSA, in a final reaction volume of 100 μl. The mixture was incubated at 30° C. for 60 min. The tritiated GAs were removed by the addition of 1 ml of activated charcoal (5% w/v) and subsequent centrifugation for 5 min in a microfuge. Aliquots (0.5 ml) of the supernatant were mixed with 2 ml scintillation fluid and the radioactivity determined by scintillation counting.
(§2) In order to confirm the function of the cDNA expression products, bacterial lysate was incubated with [17-^14C]GAs in the presence of cofactors, as described above. After the incubation, acetic acid (10 μl) and water at pH 3 (140 μl) were added, and the mixture was centrifuged at 3,000 rpm for 10 min. The supernatant was analysed by HPLC with on-line radiomonitoring and products identified by GC-MS, as described previously (MacMillan et al Plant Physiol. 113 1369-1377 (1997)).
(§3) The catalytic properties of the recombinant proteins obtained by expressing the cDNAs from P. coccineus (PcGA2ox1) and A. thaliana (AtGA2ox1, AtGA2ox2 and AtGa2ox3) in E. coli were examined by incubating in the presence of dioxygenase cofactors with a range of ^14C-labelled GA substrates, consisting of the C19-GAs GA1, GA4, GA9 and GA20, and the C20-GAs, GA12 and GA15. This last compound was incubated in both its closed and open lactone forms. […] The mass spectnum of the product from GA15 is consistent with it being 2β-hydroxyGA15, although, because the authentic compound is not available for comparison, the identity of this product is tentative.
(§4) Values are % yield by HPLC-radiomonitoring of products after incubation of cell lysates from E. coli expressing the cDNA with ^14C-labelled GA substrate and cofactors for 2.5 h. Products and substrate were separated by HPLC and products identified by GC-MS. Where combined yield of products <100%, the remainder is unconverted substrate.

[2] = molecular target: T2, AtGA2ox2 (Arabidopsis thaliana, UniProt Q9XFR9); experiment: Incubation of recombinant GA 2-oxidase AtGA2ox2 (E. coli lysate) with 14C-labelled GA substrates; format: biochemical; conditions: for conversion of C20-GA substrate: 14C-labelled substrate, dioxygenase cofactors; for GA-catabolite Product / 2β-Hydroxy GA product: E. coli cell lysate, 14C-labelled GA substrate and cofactors, 2.5 h, HPLC-radiomonitoring
T2 construct: made in house; host or cells: E. coli (crude cell lysate)
T2 sequence (Q9XFR9 1-341): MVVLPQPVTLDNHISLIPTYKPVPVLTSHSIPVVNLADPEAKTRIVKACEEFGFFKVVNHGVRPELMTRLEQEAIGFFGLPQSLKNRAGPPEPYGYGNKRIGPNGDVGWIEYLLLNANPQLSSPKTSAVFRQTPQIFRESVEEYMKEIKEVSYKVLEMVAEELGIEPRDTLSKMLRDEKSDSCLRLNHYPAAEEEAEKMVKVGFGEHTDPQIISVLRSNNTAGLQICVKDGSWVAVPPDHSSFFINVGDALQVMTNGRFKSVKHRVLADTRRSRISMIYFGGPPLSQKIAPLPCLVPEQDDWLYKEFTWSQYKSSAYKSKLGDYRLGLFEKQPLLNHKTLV
Procedure: as §1, §2, §3, §4

[3] = molecular target: T3, AtGA2ox1 (Arabidopsis thaliana, UniProt Q8LEA2); experiment: Incubation of recombinant GA 2-oxidase AtGA2ox1 (E. coli lysate) with 14C-labelled GA substrates; format: biochemical; conditions: for 2β-Hydroxy GA product: E. coli cell lysate, 14C-labelled GA substrate and cofactors, 2.5 h, HPLC-radiomonitoring
T3 construct: made in house; host or cells: E. coli (crude cell lysate)
T3 sequence (Q8LEA2 1-329): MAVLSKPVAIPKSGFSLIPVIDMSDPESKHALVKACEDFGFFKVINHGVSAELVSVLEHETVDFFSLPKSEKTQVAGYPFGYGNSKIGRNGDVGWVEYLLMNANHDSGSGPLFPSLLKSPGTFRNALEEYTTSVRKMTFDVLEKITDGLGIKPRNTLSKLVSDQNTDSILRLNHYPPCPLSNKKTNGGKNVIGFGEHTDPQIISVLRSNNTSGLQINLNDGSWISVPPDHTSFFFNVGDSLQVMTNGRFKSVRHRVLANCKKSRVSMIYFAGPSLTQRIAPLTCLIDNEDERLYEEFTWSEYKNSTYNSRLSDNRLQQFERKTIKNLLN
Procedure: as §1, §2, §3, §4

[4] = molecular target: T4, AtGA2ox3 (Arabidopsis thaliana, UniProt O64692); experiment: Incubation of recombinant GA 2-oxidase AtGA2ox3 (E. coli lysate) with 14C-labelled GA substrates; format: biochemical; conditions: for 2β-Hydroxy GA product / GA-catabolite Product: E. coli cell lysate, 14C-labelled GA substrate and cofactors, 2.5 h, HPLC-radiomonitoring
T4 construct: made in house; host or cells: E. coli (crude cell lysate)
T4 sequence (O64692 1-335): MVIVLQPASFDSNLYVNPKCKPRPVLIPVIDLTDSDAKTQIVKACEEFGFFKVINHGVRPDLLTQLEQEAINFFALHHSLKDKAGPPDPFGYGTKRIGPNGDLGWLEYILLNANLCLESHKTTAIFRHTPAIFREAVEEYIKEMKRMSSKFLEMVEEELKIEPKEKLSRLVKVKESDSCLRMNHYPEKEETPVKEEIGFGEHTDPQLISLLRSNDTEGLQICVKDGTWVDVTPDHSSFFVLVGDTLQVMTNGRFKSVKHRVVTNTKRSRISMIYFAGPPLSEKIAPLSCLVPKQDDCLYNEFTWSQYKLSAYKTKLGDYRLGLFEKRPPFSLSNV
Procedure: as §1, §2, §3, §4

[5] = test system: severely dwarfed 35S-PcGA2ox1 line; experiment: Metabolism of C19-GAs in a severely dwarfed 35S-PcGA2ox1 line compared with wild-type plants (HPLC); format: in vivo, Arabidopsis; conditions: severely dwarfed line versus wild-type, on the basis of HPLC
Description: Metabolism of C19-Gas was compared in a severely dwarfed […] line with that in wild-type plants. […] Therefore, this GA can be used, when required, to reverse the GA-deficiency resulting from overexpressing GA 2-oxidase genes.

[6] = test system: 2-oxoglutarate-dependent dioxygenases; conditions: pea seeds; cited from earlier work
[7] = test system: GA 2-oxidases; experiment: Substrate test with recombinant enzyme (GA 2-oxidases, enzyme not specified); format: biochemical
[8] = test system: 35S-PcGA2ox1 transgenic Arabidopsis lines; experiment: GA3 treatment of Arabidopsis transformants overexpressing P. coccineus GA 2-oxidase; format: in vivo
Procedure: The transformation of Arabidopsis plants with P. coccineus GA 2-oxidase cDNA under the control of the CaMV ^35S promoter yielded the following results.
Five Arabidopsis lines that are homozygous for the 35S-PcGA2ox1 transgene were obtained. […] No flower buds were obtained when plants were grown in short photoperiods.

[9] = test system: T3 and T24 (AtGA2ox1 and AtGA2ox2) transcript; experiment: Northern blot of GA 2-oxidase genes T3 and T24 after GA3 treatment of GA-deficient mutant; format: in vivo, Arabidopsis; conditions: immature flower buds and pedicels of GA-deficient mutant gal-2, after treatment
[10] = 14C-labelled substrate, dioxygenase cofactors

| Compound | conversion of C20-GA substrate [1] | conversion of C20-GA substrate [2] | 2β-Hydroxy GA product [1] [% yield] | 2β-Hydroxy GA product [3] [% yield] | 2β-Hydroxy GA product [4] [% yield] | conversion to 2-oxidised products / metabolism by the dwarf line [5] | 2β-Hydroxy GA product [2] [% yield] | further results |
| --- | --- | --- | --- | --- | --- | --- | --- | --- |
| C=C1C[C@]23C[C@H]1CC[C@H]2[C@@]12CCC[C@@](C)(C(=O)OC1)[C@H]2[C@@H]3C(=O)O [GA15] | converted to a single product | converted to a single product |  |  |  |  |  |  |
| C=C1C[C@]23C[C@H]1CC[C@H]2[C@@]12CCC[C@@](C)(C(=O)O1)[C@H]2[C@@H]3C(=O)O [GA9] |  |  | 87 | 91 | 100 | to a much greater extent than did the wild-type |  | GA-catabolite Product [1]: 13 % yield; activity for 2β-hydroxylation of GA9, dependence on pH ([1]; between pH 6.5 and 8): varied little; pH at which activity for 2β-hydroxylation of GA9 peaked [3]: 7; activity for 2β-hydroxylation of GA9 ([3]; pH ≦5.9 and ≧8.1): no detectable activity; GA-catabolite Product [2]: 100 % yield; activity for 2β-hydroxylation of GA9, dependence on pH ([2]; between pH 6.5 and 8): varied little; activity for 2β-hydroxylation of GA9, dependence on pH ([4]; between pH 6.5 and 8): varied little |
| C=C1C[C@]23C[C@H]1CC[C@H]2[C@]1(CO)CCC[C@@](C)(C(=O)O)[C@H]1[C@@H]3C(=O)O [GA15 open lactone, 20-hydroxyGA12] | no conversion | converted to the same product by AtGAox2, but less efficiently than was the lactone form |  |  |  |  |  |  |
| C=C1C[C@]23C[C@H]1CC[C@H]2[C@@]12CC[C@H](O)[C@@](C)(C(=O)O1)[C@H]2[C@@H]3C(=O)O [GA4] |  |  | 83 | 25 | 86 | to a much greater extent than did the wild-type | 77 | GA-catabolite Product [1]: 17 % yield; GA-catabolite Product [2]: 23 % yield; GA-catabolite Product [4]: 14 % yield |
| C=C1C[C@]23C[C@@]1(O)CC[C@H]2[C@@]12CC[C@H](O)[C@@](C)(C(=O)O1)[C@H]2[C@@H]3C(=O)O [GA1] |  |  | 100 | 41 | 100 | to a much greater extent than did the wild-type | 100 | GA-catabolite Product [4]: Trace |
| C=C1C[C@]23C[C@H]1CC[C@H]2[C@]1(C)CCC[C@@](C)(C(=O)O)[C@H]1[C@@H]3C(=O)O [GA12] | No conversion | No conversion |  |  |  |  |  | conversion of C20-GA substrate [3, 10]: No conversion; conversion of C20-GA substrate [4, 10]: No conversion |
| prohexadione-calcium |  |  |  |  |  |  |  | conversion of GA29 to GA29-catabolite [6]: inhibited |
| C=C1C[C@]23C[C@@]1(O)CC[C@H]2[C@@]12CCC[C@@](C)(C(=O)O1)[C@H]2[C@@H]3C(=O)O [GA20] |  |  | 86 | 50 | 25 | to a much greater extent than did the wild-type | 100 |  |
| C=C1C[C@]23C[C@@]1(O)CC[C@H]2[C@@]12C=C[C@H](O)[C@@](C)(C(=O)O1)[C@H]2[C@@H]3C(=O)O [GA3] |  |  |  |  |  | did not metabolise |  | substrate for the GA 2-oxidases [7]: not a substrate; effect on bolting and flowering of the transgenic lines ([8]; 10 μM GA3, homozygous 35S-PcGA2ox1 lines): enabled them to bolt and produce normal flowers that set viable seed; response of dwarf transformants to treatment ([8]; Arabidopsis transformants, CaMV 35S promoter, concentration not given): increased stem elongation and normal flower development; transcript abundance for both T3 and T24 [9]: increased |
